From ChEMBL document CHEMBL3621113, “Strategies for the Discovery of Target-Specific or Isoform-Selective Modulators” (J Med Chem, 2015)
pIC50: −log10 of the molar value. Each block holds one molecule with its values, some of them ahead of it.

Columns and labels:
[1] = molecular target: T1, Amine oxidase [flavin-containing] A (Homo sapiens, UniProt P21397)
T1 sequence (P21397 whole entry): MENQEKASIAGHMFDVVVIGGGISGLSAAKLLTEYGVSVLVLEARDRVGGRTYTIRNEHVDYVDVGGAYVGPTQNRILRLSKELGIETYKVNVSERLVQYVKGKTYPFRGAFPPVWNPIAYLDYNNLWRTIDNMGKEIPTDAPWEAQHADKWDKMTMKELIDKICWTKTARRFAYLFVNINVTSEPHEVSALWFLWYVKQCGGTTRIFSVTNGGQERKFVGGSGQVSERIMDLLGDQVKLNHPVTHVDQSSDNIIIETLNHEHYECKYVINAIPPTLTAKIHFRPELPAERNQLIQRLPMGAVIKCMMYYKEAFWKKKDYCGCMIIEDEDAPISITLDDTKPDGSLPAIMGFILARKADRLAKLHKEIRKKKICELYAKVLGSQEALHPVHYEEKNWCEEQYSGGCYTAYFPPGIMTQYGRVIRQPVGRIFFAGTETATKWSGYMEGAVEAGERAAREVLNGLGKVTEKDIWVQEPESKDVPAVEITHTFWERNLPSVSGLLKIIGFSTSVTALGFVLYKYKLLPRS
Description: Inhibition of human MAO-A using (4S)-4,5-dihydro-2-(6-hydroxybenzothiazolyl)-4-thiazolecarboxylic acid as substrate after 60 mins by MAO-Glo assay

[2] = molecular target: T2, Amine oxidase [flavin-containing] B (Homo sapiens, UniProt P27338)
T2 sequence (P27338 whole entry): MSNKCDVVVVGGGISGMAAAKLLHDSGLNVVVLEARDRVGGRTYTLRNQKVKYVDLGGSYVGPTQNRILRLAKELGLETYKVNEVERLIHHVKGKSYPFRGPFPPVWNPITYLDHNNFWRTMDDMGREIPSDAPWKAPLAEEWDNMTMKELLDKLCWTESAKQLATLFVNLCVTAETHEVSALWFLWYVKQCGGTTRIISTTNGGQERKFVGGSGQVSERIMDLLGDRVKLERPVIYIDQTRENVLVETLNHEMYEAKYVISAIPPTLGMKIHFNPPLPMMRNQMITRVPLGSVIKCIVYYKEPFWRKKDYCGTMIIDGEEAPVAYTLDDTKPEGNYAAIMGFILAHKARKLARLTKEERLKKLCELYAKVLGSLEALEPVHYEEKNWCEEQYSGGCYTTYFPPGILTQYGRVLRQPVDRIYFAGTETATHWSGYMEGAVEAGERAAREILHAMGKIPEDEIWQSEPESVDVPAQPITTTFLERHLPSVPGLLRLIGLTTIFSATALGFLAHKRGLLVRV
Description: Inhibition of human MAO-B using (4S)-4,5-dihydro-2-(6-hydroxybenzothiazolyl)-4-thiazolecarboxylic acid as substrate after 60 mins by MAO-Glo assay

[3] = molecular target: T1, Amine oxidase [flavin-containing] A; assay: Inhibition of MAO-A (unknown origin)
[4] = molecular target: Serine/threonine-protein kinase mTOR (Homo sapiens, UniProt P42345); assay: Inhibition of recombinant human mTOR by TR-FRET analysis
[5] = molecular target: Phosphatidylinositol 4,5-bisphosphate 3-kinase catalytic subunit beta isoform (Homo sapiens, UniProt P42338); assay: Inhibition of recombinant human PI3Kbeta by TR-FRET analysis
[6] = molecular target: Phosphatidylinositol 4,5-bisphosphate 3-kinase catalytic subunit gamma isoform (Homo sapiens, UniProt P48736); assay: Inhibition of recombinant human PI3Kgamma by TR-FRET analysis
[7] = molecular target: T3, Phosphatidylinositol 4,5-bisphosphate 3-kinase catalytic subunit delta isoform (Homo sapiens, UniProt O00329); assay: Inhibition of recombinant human PI3Kdelta by TR-FRET analysis
T3 sequence (O00329 whole entry): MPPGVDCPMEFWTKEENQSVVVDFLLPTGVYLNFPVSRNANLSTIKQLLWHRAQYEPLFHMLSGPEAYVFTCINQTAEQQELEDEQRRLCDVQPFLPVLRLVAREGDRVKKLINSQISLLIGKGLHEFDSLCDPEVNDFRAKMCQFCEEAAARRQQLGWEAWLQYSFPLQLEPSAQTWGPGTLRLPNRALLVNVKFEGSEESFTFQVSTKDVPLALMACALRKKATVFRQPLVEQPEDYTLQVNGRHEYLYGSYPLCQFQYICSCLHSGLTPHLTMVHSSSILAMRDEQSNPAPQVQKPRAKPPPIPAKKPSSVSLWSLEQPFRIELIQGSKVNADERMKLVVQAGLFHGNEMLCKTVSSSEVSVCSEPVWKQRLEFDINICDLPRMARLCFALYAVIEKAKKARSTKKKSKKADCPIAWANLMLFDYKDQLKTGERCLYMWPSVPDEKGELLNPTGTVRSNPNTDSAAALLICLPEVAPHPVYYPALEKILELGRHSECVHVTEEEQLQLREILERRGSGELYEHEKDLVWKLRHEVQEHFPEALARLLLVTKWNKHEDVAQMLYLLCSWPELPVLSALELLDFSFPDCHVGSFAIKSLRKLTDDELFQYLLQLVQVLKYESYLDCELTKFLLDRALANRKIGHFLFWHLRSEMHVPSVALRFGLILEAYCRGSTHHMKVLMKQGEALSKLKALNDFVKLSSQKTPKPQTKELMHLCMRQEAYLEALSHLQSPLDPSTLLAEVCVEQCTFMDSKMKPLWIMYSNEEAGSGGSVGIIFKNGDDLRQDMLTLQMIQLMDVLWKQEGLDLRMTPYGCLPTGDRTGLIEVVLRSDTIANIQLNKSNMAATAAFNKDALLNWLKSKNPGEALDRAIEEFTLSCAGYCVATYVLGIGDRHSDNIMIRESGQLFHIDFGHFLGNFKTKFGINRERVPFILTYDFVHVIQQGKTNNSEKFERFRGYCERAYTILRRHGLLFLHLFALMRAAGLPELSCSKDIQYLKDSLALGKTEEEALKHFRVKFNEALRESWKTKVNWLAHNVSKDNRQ

Histone deacetylase 5 = Histone deacetylase 5 (Homo sapiens, UniProt Q9UQL6)
Description: Inhibition of HDAC5 in human HeLa nuclear extracts by fluorometric assay

Histone deacetylase 8 = molecular target: T4, Histone deacetylase 8 (Homo sapiens, UniProt Q9BY41); assay: Inhibition of HDAC8 in human HeLa nuclear extracts by fluorometric assay
T4 sequence (Q9BY41 whole entry): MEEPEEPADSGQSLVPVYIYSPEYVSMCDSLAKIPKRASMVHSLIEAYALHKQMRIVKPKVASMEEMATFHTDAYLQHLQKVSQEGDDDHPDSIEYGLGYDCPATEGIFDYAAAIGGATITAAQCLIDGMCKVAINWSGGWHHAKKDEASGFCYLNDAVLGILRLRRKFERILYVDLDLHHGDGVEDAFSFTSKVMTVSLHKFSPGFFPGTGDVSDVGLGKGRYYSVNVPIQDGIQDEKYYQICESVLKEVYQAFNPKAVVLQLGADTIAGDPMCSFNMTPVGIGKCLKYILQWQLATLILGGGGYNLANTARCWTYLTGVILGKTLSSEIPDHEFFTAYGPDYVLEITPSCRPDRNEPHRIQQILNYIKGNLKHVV

[8] = molecular target: T5, Protein deacetylase HDAC6 (Homo sapiens, UniProt Q9UBN7); assay: Inhibition of HDAC6 in human HeLa nuclear extracts by fluorometric assay
T5 sequence (Q9UBN7 whole entry): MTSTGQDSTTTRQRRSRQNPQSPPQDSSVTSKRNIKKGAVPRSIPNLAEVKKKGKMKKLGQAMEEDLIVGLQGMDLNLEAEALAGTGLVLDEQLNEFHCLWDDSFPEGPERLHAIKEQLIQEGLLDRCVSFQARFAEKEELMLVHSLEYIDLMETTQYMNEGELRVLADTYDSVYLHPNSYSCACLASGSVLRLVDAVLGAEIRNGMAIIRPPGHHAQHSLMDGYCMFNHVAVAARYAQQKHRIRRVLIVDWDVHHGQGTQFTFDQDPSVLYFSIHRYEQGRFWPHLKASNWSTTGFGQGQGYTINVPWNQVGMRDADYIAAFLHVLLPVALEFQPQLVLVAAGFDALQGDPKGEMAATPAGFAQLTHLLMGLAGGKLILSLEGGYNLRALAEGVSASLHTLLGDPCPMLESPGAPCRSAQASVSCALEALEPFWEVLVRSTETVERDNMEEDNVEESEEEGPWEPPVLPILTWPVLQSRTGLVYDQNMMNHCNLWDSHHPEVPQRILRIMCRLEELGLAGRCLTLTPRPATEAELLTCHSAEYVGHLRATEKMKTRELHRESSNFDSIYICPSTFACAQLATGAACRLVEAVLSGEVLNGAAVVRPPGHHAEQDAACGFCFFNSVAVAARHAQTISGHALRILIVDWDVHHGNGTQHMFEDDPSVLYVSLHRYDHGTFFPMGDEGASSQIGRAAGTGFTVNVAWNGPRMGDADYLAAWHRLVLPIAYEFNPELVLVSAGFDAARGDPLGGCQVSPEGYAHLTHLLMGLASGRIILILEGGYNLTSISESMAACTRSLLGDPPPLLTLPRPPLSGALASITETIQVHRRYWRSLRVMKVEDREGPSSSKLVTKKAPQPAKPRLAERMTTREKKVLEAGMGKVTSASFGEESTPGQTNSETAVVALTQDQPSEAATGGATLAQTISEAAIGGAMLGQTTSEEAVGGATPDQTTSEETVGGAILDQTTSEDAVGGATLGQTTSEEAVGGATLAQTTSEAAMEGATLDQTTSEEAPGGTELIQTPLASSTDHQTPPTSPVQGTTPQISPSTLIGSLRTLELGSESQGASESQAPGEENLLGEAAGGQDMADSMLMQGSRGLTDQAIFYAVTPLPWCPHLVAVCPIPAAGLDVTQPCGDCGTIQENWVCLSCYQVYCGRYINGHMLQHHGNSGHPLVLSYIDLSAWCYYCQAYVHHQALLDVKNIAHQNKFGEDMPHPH

Histone deacetylase 4 = Histone deacetylase 4 (Homo sapiens, UniProt P56524); assay: Inhibition of HDAC4 in human HeLa nuclear extracts by fluorometric assay
[9] = molecular target: Tyrosine-protein kinase JAK1 (Homo sapiens, UniProt P23458); assay: Inhibition of JAK1 (unknown origin) after 20 mins by radiometric analysis in presence of [gamma33P]-ATP
[10] = molecular target: T6, Tyrosine-protein kinase JAK3 (Homo sapiens, UniProt P52333); assay: Inhibition of JAK3 (unknown origin) after 20 mins by radiometric analysis in presence of [gamma33P]-ATP
T6 sequence (P52333 whole entry): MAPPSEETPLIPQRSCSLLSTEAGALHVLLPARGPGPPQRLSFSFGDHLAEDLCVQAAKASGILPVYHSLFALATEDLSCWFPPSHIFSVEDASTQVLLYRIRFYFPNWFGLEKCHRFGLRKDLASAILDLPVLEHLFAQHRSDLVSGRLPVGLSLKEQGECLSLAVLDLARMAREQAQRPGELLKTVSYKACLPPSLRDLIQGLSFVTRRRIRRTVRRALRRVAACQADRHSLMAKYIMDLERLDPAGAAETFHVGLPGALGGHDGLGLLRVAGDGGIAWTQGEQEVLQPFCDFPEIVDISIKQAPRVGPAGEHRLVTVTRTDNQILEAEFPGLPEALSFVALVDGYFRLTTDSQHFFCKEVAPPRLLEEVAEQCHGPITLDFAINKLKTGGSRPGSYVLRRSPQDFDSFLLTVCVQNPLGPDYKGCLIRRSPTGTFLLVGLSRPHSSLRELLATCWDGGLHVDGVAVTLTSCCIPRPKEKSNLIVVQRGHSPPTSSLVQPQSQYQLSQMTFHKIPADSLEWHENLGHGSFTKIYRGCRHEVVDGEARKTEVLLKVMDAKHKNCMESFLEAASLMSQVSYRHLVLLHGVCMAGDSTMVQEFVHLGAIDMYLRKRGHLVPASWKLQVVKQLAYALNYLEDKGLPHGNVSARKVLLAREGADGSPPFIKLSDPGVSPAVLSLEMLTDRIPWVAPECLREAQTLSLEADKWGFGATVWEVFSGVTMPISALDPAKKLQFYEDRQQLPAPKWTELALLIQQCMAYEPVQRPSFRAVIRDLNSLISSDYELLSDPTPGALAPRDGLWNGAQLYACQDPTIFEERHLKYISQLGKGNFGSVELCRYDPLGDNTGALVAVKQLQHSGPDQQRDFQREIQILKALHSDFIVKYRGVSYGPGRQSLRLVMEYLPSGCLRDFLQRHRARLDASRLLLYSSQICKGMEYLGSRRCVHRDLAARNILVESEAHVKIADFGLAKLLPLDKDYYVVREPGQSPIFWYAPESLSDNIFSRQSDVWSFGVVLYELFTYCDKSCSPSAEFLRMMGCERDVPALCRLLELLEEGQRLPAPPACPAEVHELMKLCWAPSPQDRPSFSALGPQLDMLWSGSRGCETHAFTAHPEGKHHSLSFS

[11] = molecular target: Tyrosine-protein kinase JAK2 (Homo sapiens, UniProt O60674); assay: Inhibition of JAK2 (unknown origin) after 20 mins by radiometric analysis in presence of [gamma33P]-ATP
[12] = molecular target: Non-receptor tyrosine-protein kinase TYK2 (Homo sapiens, UniProt P29597); assay: Inhibition of TYK2 (unknown origin) after 20 mins by radiometric analysis in presence of [gamma33P]-ATP
Chain of Non-receptor tyrosine-protein kinase TYK2 (P29597 whole entry): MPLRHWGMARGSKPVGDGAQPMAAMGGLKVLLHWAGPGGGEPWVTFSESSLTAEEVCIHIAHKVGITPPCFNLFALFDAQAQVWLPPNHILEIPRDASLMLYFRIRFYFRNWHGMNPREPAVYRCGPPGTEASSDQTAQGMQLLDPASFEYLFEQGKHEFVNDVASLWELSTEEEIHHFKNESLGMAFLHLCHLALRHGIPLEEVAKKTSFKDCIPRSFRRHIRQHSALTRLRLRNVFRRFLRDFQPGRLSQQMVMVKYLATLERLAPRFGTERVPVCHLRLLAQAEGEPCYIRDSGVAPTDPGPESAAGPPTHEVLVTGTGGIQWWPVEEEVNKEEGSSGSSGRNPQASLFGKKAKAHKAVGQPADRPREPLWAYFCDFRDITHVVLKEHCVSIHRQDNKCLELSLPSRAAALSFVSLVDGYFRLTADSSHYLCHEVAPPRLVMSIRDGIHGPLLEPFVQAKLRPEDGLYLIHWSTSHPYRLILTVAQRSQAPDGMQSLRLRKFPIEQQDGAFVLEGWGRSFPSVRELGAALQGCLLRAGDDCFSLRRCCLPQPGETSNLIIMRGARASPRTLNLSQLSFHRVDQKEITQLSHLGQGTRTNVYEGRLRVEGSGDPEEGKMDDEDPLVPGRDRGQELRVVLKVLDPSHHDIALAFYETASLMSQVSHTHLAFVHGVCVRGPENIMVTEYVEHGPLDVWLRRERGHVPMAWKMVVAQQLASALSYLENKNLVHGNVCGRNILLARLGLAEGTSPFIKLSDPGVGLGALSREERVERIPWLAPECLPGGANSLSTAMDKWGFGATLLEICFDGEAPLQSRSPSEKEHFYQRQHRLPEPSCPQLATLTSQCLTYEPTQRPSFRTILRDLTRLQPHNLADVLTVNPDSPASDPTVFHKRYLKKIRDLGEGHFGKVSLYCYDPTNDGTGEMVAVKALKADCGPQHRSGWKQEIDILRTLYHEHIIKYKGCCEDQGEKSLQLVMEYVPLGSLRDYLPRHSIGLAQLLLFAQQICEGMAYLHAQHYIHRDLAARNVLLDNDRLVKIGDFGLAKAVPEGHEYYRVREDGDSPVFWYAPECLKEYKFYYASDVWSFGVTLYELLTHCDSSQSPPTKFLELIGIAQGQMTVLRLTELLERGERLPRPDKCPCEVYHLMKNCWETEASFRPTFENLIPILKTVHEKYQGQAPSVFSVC

Chain of Histone deacetylase 5 (Q9UQL6 whole entry): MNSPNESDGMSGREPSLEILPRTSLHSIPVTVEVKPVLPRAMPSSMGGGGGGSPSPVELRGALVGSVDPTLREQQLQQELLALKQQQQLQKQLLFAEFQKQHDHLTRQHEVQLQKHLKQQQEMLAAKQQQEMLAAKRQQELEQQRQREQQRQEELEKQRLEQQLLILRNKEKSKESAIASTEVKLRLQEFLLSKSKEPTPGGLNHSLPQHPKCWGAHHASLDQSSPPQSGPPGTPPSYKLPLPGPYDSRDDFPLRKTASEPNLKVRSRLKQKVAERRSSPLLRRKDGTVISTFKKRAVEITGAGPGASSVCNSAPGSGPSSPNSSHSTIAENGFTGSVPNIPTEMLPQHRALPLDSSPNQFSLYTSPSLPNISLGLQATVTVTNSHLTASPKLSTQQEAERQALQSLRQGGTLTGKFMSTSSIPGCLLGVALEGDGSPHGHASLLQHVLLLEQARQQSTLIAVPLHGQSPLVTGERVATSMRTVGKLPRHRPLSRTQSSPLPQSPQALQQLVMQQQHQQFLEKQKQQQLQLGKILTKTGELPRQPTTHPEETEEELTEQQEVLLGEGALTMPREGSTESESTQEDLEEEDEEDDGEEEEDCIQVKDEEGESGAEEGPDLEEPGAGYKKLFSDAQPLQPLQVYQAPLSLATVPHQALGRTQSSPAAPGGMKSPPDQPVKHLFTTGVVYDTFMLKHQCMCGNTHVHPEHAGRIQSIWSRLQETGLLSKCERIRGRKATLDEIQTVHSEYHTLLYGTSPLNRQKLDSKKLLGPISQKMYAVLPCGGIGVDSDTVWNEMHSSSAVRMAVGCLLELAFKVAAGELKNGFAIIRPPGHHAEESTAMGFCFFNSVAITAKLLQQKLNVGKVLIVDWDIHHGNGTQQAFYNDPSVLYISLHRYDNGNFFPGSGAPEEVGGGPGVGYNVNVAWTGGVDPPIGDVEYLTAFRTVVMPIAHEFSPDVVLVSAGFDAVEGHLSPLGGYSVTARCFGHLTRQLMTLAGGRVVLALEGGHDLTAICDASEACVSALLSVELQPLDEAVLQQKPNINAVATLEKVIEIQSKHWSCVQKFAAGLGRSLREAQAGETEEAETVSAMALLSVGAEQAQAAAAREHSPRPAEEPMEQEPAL
Chain of Histone deacetylase 4 (P56524 whole entry): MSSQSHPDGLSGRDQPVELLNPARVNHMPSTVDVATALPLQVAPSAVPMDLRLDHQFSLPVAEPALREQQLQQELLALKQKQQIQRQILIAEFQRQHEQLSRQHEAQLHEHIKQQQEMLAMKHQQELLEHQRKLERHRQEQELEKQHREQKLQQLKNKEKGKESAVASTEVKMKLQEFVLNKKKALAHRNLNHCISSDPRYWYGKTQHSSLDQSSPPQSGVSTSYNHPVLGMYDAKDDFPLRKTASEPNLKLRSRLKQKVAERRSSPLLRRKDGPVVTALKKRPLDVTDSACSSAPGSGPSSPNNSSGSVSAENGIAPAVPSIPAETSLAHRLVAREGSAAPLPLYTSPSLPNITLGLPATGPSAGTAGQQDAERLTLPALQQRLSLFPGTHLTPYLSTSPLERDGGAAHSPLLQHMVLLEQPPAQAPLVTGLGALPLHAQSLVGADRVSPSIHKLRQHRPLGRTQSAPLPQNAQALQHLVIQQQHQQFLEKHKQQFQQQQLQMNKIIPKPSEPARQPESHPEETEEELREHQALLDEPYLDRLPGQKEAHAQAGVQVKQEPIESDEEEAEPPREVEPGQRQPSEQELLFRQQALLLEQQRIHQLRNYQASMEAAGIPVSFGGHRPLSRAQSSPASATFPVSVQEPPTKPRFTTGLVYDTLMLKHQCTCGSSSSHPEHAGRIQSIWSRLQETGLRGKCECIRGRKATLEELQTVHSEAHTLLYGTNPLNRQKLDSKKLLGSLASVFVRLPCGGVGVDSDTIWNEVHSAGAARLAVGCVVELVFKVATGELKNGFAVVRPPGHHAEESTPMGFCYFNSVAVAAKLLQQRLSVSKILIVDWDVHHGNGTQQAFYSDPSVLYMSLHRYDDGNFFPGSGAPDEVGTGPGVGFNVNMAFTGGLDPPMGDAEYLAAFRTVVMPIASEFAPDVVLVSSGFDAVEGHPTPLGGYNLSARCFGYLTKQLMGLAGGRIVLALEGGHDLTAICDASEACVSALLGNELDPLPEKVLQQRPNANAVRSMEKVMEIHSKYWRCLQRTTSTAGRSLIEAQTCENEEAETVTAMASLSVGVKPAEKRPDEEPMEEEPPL
Chain of Phosphatidylinositol 4,5-bisphosphate 3-kinase catalytic subunit gamma isoform (P48736 whole entry, canonical isoform): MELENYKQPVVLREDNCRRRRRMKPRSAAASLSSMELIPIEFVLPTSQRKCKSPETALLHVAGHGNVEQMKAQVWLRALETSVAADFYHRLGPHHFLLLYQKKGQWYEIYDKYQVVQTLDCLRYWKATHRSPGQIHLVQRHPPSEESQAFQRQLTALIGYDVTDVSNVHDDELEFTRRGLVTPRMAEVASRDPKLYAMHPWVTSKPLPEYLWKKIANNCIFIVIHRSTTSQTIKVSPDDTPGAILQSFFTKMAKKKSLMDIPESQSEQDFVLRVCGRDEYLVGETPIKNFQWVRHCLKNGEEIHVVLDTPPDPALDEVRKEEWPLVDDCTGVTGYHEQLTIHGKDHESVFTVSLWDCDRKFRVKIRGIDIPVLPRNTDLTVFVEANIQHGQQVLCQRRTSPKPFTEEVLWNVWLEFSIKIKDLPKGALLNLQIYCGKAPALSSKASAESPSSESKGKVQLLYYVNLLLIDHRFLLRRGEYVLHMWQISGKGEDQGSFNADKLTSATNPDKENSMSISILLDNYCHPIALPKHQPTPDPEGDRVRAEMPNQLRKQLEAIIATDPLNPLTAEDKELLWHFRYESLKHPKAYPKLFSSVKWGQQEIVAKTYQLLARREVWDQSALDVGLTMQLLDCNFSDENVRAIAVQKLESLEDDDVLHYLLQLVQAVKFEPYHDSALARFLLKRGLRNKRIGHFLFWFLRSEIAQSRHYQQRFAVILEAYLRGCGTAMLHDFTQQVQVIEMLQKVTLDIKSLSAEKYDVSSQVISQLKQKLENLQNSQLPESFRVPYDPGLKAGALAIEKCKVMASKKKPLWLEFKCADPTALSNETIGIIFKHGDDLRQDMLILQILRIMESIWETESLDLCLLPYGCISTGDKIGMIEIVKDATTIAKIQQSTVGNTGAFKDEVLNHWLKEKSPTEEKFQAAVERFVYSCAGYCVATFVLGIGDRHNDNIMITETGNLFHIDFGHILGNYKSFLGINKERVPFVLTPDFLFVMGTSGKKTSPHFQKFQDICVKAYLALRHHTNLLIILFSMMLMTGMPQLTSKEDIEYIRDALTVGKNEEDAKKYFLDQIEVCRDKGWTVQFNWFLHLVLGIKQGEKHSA

- pIC50 [1]: 3.54
- pIC50 [2]: < 3.00
Compound: N[C@@H]1C[C@H]1c1ccc(OCC[C@H](NC(=O)c2ccccc2)C(=O)NCc2ccccc2)cc1

- pIC50 [1]: 3.64
- pIC50 [2]: 3.30
Compound: NC1CC1c1cccc(OCC[C@H](NC(=O)c2ccccc2)C(=O)NCc2ccccc2)c1 (stereo partly drawn)

- pIC50 [3]: < 4.60
Compound: O=C(N[C@@H](CCCCNC1CC1c1ccccc1)C(=O)NCc1ccccc1)c1ccccc1 (stereo partly drawn)

- pIC50 [4]: < 5.00
- pIC50 [5]: < 5.00
- pIC50 [6]: < 5.00
- pIC50 [7]: < 5.00
Compound: C[C@@H]1COCCN1c1cc(=O)n2c(n1)N(Cc1cncc(Cl)c1)[C@H](C(F)(F)F)CC2

- pIC50 (Histone deacetylase 5): < 4.00
- pIC50 (Histone deacetylase 8): < 4.00
- pIC50 [8]: < 4.00
- pIC50 (Histone deacetylase 4): < 4.00
Compound: Nc1ccccc1NC(=O)c1ccc(-c2cn(CCc3ccsc3)nn2)cc1

- pIC50 (Histone deacetylase 5): < 4.00
Compound: Nc1ccccc1NC(=O)c1ccc(-c2cn(CCc3cccc([N+](=O)[O-])c3)nn2)s1

- pIC50 [9]: 5.56
- pIC50 [10]: 7.46
- pIC50 [11]: 5.61
- pIC50 [12]: 5.25
Compound: c1nc(-c2cn(CC3CO3)nn2)c2cc[nH]c2n1 (stereo not drawn)
